Key:
[1] = tested on: LNCap; experiment: In vitro cell growth assay (MTS), LNCap; assay type: cell-based; settings: LNCaP, 72 h, human prostate line, three days after drug treatment
[2] = tested on: MDA468; experiment: In vitro cell growth assay (MTS), MDA468; assay type: cell-based; settings: 72 h, human breast line MDA468, three days after drug treatment, read-out: MDA IC50
[3] = biological target: mTOR (Homo sapiens, UniProt P42345); experiment: mTOR enzyme assay (DELFIA, purified FLAG-TOR, His6-S6K substrate); assay type: biochemical; set-up: FLAG; settings: 100 μM ATP, 2 hours
[4] = biological target: PI3K-gamma (Homo sapiens, UniProt P48736); experiment: PI3K-gamma fluorescence polarization assay; assay type: biochemical; settings: 20 μM PIP2, 25 μM ATP; read-out: PI3Kγ IC50
Method in brief: (§1)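 PIP2 (diC8) and ATP substrate with PI3K in 20 mM HEPES pH 7.5, 2 mM MgCl2, 0.05% CHAPS, 0.01% βME; 1% DMSO final; 30–60 min reaction. Stopped with EDTA plus GST-GRP (70 nM) and TAMRA probe (10 nM); FP (mP) read after 30–90 min, with no-enzyme controls.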

[5] = biological target: PI3K-alpha (Homo sapiens, UniProt P42336); experiment: PI3K-alpha fluorescence polarization assay; assay type: biochemical; settings: 20 μM PIP2, 25 μM ATP; read-out: PI3Kα IC50
Method in brief: as §1

Sequence of PI3K-alpha (P42336 whole entry, species assumed): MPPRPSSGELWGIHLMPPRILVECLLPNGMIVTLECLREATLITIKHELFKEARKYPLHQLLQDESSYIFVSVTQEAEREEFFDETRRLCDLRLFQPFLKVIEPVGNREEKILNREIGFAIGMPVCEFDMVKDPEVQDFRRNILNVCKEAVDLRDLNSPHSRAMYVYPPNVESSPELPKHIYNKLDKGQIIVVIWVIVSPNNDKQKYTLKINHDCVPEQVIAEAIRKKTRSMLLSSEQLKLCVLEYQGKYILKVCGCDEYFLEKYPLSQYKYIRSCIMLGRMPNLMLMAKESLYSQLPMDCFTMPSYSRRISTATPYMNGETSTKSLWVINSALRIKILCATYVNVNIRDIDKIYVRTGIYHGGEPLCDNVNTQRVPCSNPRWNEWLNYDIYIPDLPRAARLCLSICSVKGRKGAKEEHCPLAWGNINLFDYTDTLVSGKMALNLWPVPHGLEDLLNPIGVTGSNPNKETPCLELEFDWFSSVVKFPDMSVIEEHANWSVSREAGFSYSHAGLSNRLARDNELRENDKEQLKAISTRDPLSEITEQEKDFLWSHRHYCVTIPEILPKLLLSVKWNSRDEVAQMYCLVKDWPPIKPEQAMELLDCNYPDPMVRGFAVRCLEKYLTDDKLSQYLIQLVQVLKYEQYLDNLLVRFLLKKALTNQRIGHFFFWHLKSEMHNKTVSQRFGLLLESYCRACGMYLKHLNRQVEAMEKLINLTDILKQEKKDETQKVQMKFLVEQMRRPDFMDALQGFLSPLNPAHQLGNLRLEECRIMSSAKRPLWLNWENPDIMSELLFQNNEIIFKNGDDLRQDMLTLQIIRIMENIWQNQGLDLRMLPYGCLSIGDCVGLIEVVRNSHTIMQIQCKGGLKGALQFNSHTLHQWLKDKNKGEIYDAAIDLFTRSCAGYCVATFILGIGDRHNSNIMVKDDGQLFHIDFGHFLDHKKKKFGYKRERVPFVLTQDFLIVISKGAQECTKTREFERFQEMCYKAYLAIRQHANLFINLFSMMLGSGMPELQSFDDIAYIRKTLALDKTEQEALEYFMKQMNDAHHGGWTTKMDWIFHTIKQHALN
Sequence of PI3K-alpha (P27986 whole entry partner, species assumed): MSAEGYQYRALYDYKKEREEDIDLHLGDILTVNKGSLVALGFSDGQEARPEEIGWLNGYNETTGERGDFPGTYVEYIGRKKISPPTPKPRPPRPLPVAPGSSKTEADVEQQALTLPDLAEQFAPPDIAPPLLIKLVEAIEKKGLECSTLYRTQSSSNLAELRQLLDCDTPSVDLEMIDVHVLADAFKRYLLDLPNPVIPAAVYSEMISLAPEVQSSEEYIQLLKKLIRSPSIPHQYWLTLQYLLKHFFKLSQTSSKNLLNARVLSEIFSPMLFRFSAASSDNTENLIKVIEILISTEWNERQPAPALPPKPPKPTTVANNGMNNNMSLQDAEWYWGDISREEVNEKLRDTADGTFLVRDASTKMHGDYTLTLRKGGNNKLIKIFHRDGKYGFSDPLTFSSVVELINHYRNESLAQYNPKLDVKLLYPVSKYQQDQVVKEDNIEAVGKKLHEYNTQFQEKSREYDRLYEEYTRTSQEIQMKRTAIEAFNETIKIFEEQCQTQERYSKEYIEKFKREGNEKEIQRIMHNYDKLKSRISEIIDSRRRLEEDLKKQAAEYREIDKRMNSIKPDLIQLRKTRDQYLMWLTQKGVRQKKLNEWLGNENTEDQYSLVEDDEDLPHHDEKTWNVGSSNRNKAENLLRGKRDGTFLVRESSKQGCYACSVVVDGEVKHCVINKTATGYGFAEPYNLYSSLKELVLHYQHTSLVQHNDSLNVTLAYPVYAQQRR
Sequence of mTOR (P42345 1360-2549 limits assumed): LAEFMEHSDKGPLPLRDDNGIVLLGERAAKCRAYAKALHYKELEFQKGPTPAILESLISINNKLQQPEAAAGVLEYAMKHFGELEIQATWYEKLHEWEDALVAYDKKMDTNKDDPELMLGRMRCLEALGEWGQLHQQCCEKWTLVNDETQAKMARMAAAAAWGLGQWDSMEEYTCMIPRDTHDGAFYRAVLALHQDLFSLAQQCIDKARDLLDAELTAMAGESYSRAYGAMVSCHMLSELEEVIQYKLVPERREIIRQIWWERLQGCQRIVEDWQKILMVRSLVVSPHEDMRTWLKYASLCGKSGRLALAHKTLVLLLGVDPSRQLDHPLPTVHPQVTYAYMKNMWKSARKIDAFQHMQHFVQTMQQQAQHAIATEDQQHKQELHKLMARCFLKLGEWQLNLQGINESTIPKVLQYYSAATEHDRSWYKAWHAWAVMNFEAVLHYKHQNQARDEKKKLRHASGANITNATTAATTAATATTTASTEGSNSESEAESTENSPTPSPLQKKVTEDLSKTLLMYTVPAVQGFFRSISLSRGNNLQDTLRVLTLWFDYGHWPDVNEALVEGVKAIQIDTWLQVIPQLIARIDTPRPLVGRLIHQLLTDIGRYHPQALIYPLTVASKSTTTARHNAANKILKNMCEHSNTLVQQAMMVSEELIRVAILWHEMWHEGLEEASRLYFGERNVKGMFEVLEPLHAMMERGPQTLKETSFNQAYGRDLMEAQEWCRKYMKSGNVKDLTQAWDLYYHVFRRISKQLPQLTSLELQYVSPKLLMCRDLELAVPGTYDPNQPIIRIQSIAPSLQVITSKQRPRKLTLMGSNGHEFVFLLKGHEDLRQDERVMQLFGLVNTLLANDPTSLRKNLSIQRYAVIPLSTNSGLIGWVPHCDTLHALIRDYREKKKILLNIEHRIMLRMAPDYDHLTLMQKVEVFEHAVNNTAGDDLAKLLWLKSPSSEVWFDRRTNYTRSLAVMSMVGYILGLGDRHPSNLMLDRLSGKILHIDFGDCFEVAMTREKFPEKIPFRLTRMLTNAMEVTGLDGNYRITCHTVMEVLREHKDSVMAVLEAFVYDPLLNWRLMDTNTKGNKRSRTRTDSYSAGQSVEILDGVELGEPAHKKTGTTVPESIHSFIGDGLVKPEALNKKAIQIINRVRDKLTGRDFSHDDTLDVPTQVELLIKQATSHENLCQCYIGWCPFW
Sequence of PI3K-gamma (P48736 whole entry, species assumed): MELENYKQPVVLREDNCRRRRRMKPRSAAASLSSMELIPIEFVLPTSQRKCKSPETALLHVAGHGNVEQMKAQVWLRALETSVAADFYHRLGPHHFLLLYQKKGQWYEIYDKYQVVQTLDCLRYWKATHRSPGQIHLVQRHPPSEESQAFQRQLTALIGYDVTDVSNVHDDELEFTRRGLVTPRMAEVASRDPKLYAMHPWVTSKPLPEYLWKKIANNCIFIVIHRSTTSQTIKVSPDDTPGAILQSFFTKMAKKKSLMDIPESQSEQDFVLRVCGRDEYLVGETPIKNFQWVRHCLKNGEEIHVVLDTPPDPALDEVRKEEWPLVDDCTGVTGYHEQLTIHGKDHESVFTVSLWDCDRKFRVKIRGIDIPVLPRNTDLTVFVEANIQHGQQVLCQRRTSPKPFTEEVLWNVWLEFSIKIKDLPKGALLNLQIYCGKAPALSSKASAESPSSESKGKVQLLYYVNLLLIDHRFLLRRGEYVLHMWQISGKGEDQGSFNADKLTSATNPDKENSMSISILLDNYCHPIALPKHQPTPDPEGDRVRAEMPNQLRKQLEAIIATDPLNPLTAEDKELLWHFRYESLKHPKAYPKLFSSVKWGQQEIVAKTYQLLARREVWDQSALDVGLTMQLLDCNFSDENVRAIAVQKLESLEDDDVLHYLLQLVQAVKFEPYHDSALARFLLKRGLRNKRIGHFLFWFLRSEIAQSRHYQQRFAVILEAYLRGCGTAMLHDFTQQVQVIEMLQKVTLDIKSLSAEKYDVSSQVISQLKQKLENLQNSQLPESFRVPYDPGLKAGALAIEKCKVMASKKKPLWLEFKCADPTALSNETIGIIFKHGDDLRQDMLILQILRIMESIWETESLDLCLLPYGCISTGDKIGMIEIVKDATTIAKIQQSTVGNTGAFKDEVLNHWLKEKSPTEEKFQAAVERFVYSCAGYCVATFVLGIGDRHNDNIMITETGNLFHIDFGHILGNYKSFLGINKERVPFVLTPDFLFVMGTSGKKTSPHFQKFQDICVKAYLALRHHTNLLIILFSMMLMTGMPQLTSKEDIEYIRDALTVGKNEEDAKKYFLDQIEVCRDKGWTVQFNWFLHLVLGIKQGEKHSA

| SMILES | IC50 [1] [nM] | IC50 [2] [nM] | IC50 [3] [nM] | IC50 [4] [µM] | IC50 [5] [nM] |
| --- | --- | --- | --- | --- | --- |
| O=C(Nc1ccc(-c2nc(C3CCOCC3)cc(N3C4CCC3COC4)n2)cc1)Nc1cccnc1 [1-{4-[4-(3-oxa-8-azabicyclo[3.2.1]oct-8-yl)-6-(tetrahydro-2H-pyran-4-yl)pyrimidin-2-yl]phenyl}-3-pyridin-3-ylurea] | 4 | 200 | 0.32 | ≥ 10 | 2690 |
| O=C(Nc1ccncc1)Nc1ccc(-c2nc(C3CCOCC3)cc(N3C4CCC3COC4)n2)cc1 [1-{4-[4-(3-oxa-8-azabicyclo[3.2.1]oct-8-yl)-6-(tetrahydro-2H-pyran-4-yl)pyrimidin-2-yl]phenyl}-3-pyridin-4-ylurea] | ≤ 0.8 | 4 | 0.365 | 7.98 | 1780 |
| O=C(Nc1ccc(-c2nc(NC3CCOCC3)cc(N3C4CCC3COC4)n2)cc1)Nc1cccnc1 [1-{4-[4-(3-oxa-8-azabicyclo[3.2.1]oct-8-yl)-6-(tetrahydro-2H-pyran-4-ylamino)pyrimidin-2-yl]phenyl}-3-pyridin-3-ylurea] | 50 | 160 | 3.3 | ≥ 10 | 2680 |
| O=C(Nc1ccncc1)Nc1ccc(-c2nc(NC3CCOCC3)cc(N3C4CCC3COC4)n2)cc1 [1-{4-[4-(3-oxa-8-azabicyclo[3.2.1]oct-8-yl)-6-(tetrahydro-2H-pyran-4-ylamino)pyrimidin-2-yl]phenyl}-3-pyridin-4-ylurea] | 40 | 40 | 3.8 | 12 | 2010 |
| CCN(CC)c1cc(N2C3CCC2COC3)nc(-c2ccc(NC(=O)Nc3ccc(N4CCN(C)CC4)cc3)cc2)n1 [1-{4-[4-(diethylamino)-6-(3-oxa-8-azabicyclo[3.2.1]oct-8-yl)pyrimidin-2-yl]phenyl}-3-[4-(4-methylpiperazin-1-yl)phenyl]urea] | 132 | 560 | 5.85 | 3.39 | 2910 |
| CS(=O)(=O)CCNc1cc(N2C3CCC2COC3)nc(-c2ccc(NC(=O)Nc3cccnc3)cc2)n1 [1-{4-[4-{[2-(methylsulfonyl)ethyl]amino}-6-(3-oxa-8-azabicyclo[3.2.1]oct-8-yl)pyrimidin-2-yl]phenyl}-3-pyridin-3-ylurea] | 2000 | 800 | 5 | ≥ 10 | 1640 |
| CS(=O)(=O)CCNc1cc(N2C3CCC2COC3)nc(-c2ccc(NC(=O)Nc3ccncc3)cc2)n1 [1-{4-[4-{[2-(methylsulfonyl)ethyl]amino}-6-(3-oxa-8-azabicyclo[3.2.1]oct-8-yl)pyrimidin-2-yl]phenyl}-3-pyridin-4-ylurea] | 1000 | 400 | 4.05 | 10.8 | 1300 |
| CN1CCN(C(=O)c2ccc(NC(=O)Nc3ccc(-c4nc(C5CCOCC5)cc(N5C6CCC5COC6)n4)cc3)cc2)CC1 [1-{4-[(4-methylpiperazin-1-yl)carbonyl]phenyl}-3-{4-[4-(3-oxa-8-azabicyclo[3.2.1]oct-8-yl)-6-(tetrahydro-2H-pyran-4-yl)pyrimidin-2-yl]phenyl}urea] | ≤ 0.8 | 0.8 | 0.44 | 3.05 | 230 |
| CN1CCN(Cc2ccc(NC(=O)Nc3ccc(-c4nc(N5C6CCC5COC6)cc(N5C[C@H]6C[C@@H]5CO6)n4)cc3)cc2)CC1 [1-{4-[(4-methylpiperazin-1-yl)methyl]phenyl}-3-(4-{4-[(1R,4R)-2-oxa-5-azabicyclo[2.2.1]hept-5-yl]-6-(3-oxa-8-azabicyclo[3.2.1]oct-8-yl)pyrimidin-2-yl}phenyl)urea] | 180 | 190 | 9.9 | 7.59 | 1190 |

From patent publication US8835429B2, “Pyrimidine compounds, their use as mTOR kinase and Pl3 kinase inhibitors, and their syntheses” (Wyeth LLC, priority 2009, dated 2014)
